Consider nine compounds from patent publication US20140005163A1 (NOVARTIS AG, priority 2010, published 2014).

Broadly, the IC50 is the concentration needed to halve the response being measured. What is called solubility is how much of the substance goes into solution per volume.

≈ marks a conversion by molar mass, not a printed value.

One data set concerns the target T1, PI3K beta (Homo sapiens, UniProt P42338).
T1 construct: for the full-length p110-b subunit are generated and fused by overlapping PCR; p85(iSH2) fusion partner (see partner chain) (N); His tag (C); made in house; host or cells: baculovirus; Tn5 (Trichoplusia ni) or TiniPro insect cells
Put plainly: PI3K beta kinase assay (Kinase-Glo luminescence). The class given is biochemical. The method, then:
(§1) In a more preferred assay, the kinase reaction is performed in a final volume of 10 μL per well of a low volume non binding CORNING, 384 well black plate (Cat. No. #3676). The final concentrations of ATP and phosphatidyl inositol (PI) in the assay are 1 μM and 10 μg/mL respectively. The reaction is started by the addition of ATP.
(§2) The components of the assay are added per well as follows:
(§3) […] in 90% DMSO per well, in columns 1-20, 8 concentrations (1/3 and 1/3.33 serial dilution step) in single. • Low control: […] of 90% DMSO in half the wells of columns 23-24 (0.45% in final). • High control: […] of reference compound (e.g. compound of Example 7 in WO 2006/122806) in the other half of columns 23-24 (2.5 μM in final). • Standard: […] of reference compound as just mentioned diluted as the test compounds in columns 21-22 • 20 mL ‘buffer’ are prepared per assay: • 200 μL of 1M TRIS HCl pH7.5 (10 mM in final) • 60 μL of 1M MgCl2 (3 mM in final) • 500 μL of 2M NaCl (50 mM in final) • 100 μL of 10% CHAPS (0.05% in final) • 200 μL of 100 mM DTT (1 mM in final) • 18.94 mL of nanopure water • 10 mL ‘PI’ are prepared per assay: • 200 μL of 1 mg/ml L-alpha-Phosphatidylinositol (Liver Bovine, Avanti Polar Lipids Cat. No. 840042C MW=909.12) prepared in 3% OctylGlucoside (10 μg/ml in final) • 9.8 mL of ‘buffer’ • 10 mL ‘ATP’ are prepared per assay: • 6.7 μL of 3 mM stock of ATP giving a final concentration of 1 μM per well • 10 mL of ‘buffer’ • 2.5 mL of each PI3K construct are prepared per assay in ‘PI’ with the following final concentration: • 10 nM PI3K alfa EMV B1075 • 25 nM beta EMV BV949 • 10 nM delta EMV BV1060 • 150 nM gamma EMV BV950 • 5 μL of ‘PI/PI3K’ are added per well. • 5 μl ‘ATP’ are added per well to start the reaction. • The plates are then incubated at room temperature for 60 minutes (alfa, beta, delta) or 120 minutes (gamma). • The reaction is terminated by the addition of 10 μL Kinase-Glo (Promega Cat. No. #6714). • The assay plates are read after 10 minutes in Synergy 2 reader (BioTek, Vermont USA) with an integration time of 100 milliseconds and sensitivity set to 191. • Output: The High control is around 60'000 counts and the Low control is 30'000 or lower • This luminescence assay gives a useful Z′ ratio between 0.4 and 0.7
PI3Kβ BV-949 p85(iSH2)-Gly Linker-p110b(Full-Length)-C-Term his Tag
(§4) IC50 is determined by a four parameter curve fitting routine that comes along with “excel fit”. […] Alternatively, IC50 values are calculated using idbsXLfit model 204, which is a 4 parameter logistic model.

A further data set has as its target T2, PI3K delta (Homo sapiens, UniProt O00329).
T2 construct: for the full-length p110-d subunit are generated and fused by overlapping PCR; p85(iSH2) fusion partner (see partner chain) (N); His tag (C); made in house; host or cells: baculovirus; Tn5 (Trichoplusia ni) or TiniPro insect cells
The data set is described as follows: PI3K delta kinase assay (Kinase-Glo luminescence). Format: biochemical. How it is done: as §1, §2, §3
PI3Kγ BV-1060 p85(iSH2)-Gly Linker-p110d(Full-Length)-C-Term his Tag
as §4
For orientation: In Kinase-Glo more light means more ATP remaining.

Data set [1] deals with S6 Ribosomal Protein phosphorylation Ser235/236 in TSC1 null mouse embryo fibroblast (MEF) cells. Put plainly: Reverse protein array assay, S6 Ribosomal Protein phosphorylation Ser235/236 in TSC1 null MEF cells. The class given is cell-based. The note with it: 1 h, pS6 ribosomal protein Ser235/236, 60 minutes incubation, read-out: p-S6 IC50. The gist of the method: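 TSC1−/− MEFs, seeded and held ≥20 h at 37 °C/5% CO2, were exposed to 8-step serial compound dilutions (0.02% DMSO final; DMSO vehicle control) for 60 min at 37 °C. Cells were then lysed on ice for 10 min and lysates spotted onto reverse protein array chips.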

In another data set the target is T3, PI3K alpha (Homo sapiens, UniProt P42336).
T3 construct: p85(iSH2) fusion partner (see partner chain) (N); His tag (C); made in house; host or cells: baculovirus; Tn5 (Trichoplusia ni) or TiniPro insect cells
T3 sequence (P42336 with tags, fused parts or gaps limits assumed): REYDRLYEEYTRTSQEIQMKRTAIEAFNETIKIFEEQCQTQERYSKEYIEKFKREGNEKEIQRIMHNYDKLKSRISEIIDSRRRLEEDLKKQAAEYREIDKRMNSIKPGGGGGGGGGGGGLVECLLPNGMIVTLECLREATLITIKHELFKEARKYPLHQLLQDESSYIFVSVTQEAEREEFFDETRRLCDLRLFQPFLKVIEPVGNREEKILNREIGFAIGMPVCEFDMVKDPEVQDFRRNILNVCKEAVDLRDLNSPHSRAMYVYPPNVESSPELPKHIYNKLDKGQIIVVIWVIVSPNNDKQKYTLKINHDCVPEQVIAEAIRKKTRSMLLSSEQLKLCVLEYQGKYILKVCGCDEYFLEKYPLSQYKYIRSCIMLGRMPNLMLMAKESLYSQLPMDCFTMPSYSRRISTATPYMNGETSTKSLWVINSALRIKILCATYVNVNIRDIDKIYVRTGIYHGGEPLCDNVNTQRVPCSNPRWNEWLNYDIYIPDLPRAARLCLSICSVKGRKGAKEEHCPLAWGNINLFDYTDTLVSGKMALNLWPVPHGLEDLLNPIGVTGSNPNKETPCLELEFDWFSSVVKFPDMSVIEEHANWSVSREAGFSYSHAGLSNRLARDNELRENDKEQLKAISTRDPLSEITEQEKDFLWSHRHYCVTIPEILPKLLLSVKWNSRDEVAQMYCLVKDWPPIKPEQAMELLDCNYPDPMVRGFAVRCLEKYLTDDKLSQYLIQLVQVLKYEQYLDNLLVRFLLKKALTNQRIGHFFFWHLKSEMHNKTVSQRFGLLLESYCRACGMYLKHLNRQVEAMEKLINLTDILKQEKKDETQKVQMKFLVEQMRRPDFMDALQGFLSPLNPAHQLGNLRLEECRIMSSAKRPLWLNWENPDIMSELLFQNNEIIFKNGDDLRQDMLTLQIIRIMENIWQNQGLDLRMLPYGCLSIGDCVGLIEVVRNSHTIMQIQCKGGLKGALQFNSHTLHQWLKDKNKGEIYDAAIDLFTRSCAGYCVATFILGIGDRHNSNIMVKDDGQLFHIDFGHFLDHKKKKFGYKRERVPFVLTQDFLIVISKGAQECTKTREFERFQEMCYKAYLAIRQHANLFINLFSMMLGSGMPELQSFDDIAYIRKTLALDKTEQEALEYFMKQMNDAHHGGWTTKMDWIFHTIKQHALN
The data set is described as follows: PI3K alpha kinase assay (Kinase-Glo luminescence). The class given is biochemical. The gist of the method: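 PI3K alpha at 10 nM with 1 μM ATP and 10 μg/mL phosphatidylinositol in 10 mM TRIS pH 7.5, 3 mM MgCl2, 50 mM NaCl, 0.05% CHAPS, 1 mM DTT, 60 min at room temperature. Remaining ATP read by Kinase-Glo luminescence. IC50 by 4-parameter fit over 8 concentrations.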

In data set [2] the test system is PKB Ser473 phosphorylation in Rat1-myr-HA-p110 alpha cells. Put plainly: Reverse protein array assay, PKB Ser473 phosphorylation in Rat1-myr-p110 alpha cells. The note with it: 0.5 h, pAkt Ser473, 30 minutes compound incubation, read-out: p-PKB IC50. Format: cell-based. The gist of the method:
(§5)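 Compound exposure lasted 30 min in Rat1 cells bearing membrane-targeted HA-p110 isoforms, using 8 serial concentrations. Arrayed lysates, each spotted at four dilutions, gave relative fluorescence signals for phospho-Ser473 PKB.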

Data set [3] relates to PKB Ser473 phosphorylation in Rat1-myr-HA-p110 delta cells. Put plainly: Reverse protein array assay, PKB Ser473 phosphorylation in Rat1-myr-p110 delta cells. The class given is cell-based. The note with it: read-out: p-PKB IC50. The gist of the method:
as §5

In another data set the target is T4, mTOR (Homo sapiens, UniProt P42345).
T4 construct: purchased Invitrogen Corporation (Carlsbad/CA, USA) PV4753
T4 sequence (P42345 1360-2549 limits assumed): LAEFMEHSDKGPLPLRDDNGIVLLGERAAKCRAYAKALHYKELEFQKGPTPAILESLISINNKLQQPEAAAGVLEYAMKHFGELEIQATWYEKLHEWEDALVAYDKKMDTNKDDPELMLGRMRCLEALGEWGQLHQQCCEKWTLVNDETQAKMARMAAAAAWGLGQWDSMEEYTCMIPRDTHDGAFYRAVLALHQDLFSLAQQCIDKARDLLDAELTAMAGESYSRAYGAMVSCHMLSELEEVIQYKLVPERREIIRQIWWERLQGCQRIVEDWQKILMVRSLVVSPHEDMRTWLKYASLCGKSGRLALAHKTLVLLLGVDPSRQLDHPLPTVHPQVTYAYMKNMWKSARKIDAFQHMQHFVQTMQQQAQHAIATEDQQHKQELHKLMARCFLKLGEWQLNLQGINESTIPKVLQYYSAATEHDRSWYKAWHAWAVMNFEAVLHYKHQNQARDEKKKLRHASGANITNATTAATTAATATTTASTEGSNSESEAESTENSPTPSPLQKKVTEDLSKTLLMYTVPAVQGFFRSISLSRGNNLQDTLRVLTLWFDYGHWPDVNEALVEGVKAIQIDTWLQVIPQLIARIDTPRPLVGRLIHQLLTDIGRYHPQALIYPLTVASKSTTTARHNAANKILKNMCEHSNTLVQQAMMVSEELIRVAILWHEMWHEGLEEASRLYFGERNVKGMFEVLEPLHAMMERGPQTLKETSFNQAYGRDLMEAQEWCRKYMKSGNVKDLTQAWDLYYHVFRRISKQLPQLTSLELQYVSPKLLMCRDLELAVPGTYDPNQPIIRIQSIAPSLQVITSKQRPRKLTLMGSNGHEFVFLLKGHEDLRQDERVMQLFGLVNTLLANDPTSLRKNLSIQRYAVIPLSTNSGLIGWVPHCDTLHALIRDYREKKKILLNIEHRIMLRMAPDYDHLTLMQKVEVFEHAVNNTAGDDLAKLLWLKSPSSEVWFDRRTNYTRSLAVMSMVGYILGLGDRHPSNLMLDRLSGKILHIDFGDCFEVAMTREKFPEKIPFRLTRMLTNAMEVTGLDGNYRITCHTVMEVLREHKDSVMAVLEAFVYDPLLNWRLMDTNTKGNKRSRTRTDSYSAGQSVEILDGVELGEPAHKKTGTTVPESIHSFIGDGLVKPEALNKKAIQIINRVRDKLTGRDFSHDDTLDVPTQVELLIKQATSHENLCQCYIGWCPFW
The data set is described as follows: Biochemical assay for m-TOR by TR-FRET. The note with it: 8 μM ATP, 400 nM GFP-4EBP1, 0.5 nM mTOR. The gist of the method: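 Enzyme 0.5 nM, GFP-4EBP1 400 nM, ATP 8 μM (all final); 50 mM HEPES pH 7.5, 10 mM MnCl2, 1 mM DTT; rt. Detection: Tb-α-p4EBP1 [pT46] 0.5 nM in EDTA, TR-FRET, 15 min. Reference compound on every plate, 16-point duplicate dilutions.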

The test system of data set [4] is PKB Ser473 phosphorylation in Rat1-myr-HA-p110 beta cells. Put plainly: Reverse protein array assay, PKB Ser473 phosphorylation in Rat1-myr-p110 beta cells. The note with it: 0.5 h, pAkt Ser473, 30 minutes incubation, read-out: p-PKB IC50. Format: cell-based. The gist of the method:
as §5

A further data set in a line: Solubility at pH 6.8. The note with it: pH 6.8, aqueous buffer, thermodynamic from solid; read-out: solubility. Format: physicochemical. The source says:
The physicochemical properties of relevance for the absorption of the compound, such as the solubility and the membrane permeability, especially at a pH close to neutral pH can be measured using the procedure as described by L. ZHOU et al. in JOURNAL OF PHARMACEUTICAL SCIENCES, VOL. 96, NO. 11, p. 3052-3071 (2007) for the solubility at pH 6.8 and the procedure as described by F. Wohnsland and B. Faller in Journal of Medicinal Chemistry Vol 44, p. 923-930 (2001) for the Parallel Artificial Membrane Permeability Assay (PAMPA) at pH 6.8.

T2 sequence (O00329 with tags, fused parts or gaps limits assumed): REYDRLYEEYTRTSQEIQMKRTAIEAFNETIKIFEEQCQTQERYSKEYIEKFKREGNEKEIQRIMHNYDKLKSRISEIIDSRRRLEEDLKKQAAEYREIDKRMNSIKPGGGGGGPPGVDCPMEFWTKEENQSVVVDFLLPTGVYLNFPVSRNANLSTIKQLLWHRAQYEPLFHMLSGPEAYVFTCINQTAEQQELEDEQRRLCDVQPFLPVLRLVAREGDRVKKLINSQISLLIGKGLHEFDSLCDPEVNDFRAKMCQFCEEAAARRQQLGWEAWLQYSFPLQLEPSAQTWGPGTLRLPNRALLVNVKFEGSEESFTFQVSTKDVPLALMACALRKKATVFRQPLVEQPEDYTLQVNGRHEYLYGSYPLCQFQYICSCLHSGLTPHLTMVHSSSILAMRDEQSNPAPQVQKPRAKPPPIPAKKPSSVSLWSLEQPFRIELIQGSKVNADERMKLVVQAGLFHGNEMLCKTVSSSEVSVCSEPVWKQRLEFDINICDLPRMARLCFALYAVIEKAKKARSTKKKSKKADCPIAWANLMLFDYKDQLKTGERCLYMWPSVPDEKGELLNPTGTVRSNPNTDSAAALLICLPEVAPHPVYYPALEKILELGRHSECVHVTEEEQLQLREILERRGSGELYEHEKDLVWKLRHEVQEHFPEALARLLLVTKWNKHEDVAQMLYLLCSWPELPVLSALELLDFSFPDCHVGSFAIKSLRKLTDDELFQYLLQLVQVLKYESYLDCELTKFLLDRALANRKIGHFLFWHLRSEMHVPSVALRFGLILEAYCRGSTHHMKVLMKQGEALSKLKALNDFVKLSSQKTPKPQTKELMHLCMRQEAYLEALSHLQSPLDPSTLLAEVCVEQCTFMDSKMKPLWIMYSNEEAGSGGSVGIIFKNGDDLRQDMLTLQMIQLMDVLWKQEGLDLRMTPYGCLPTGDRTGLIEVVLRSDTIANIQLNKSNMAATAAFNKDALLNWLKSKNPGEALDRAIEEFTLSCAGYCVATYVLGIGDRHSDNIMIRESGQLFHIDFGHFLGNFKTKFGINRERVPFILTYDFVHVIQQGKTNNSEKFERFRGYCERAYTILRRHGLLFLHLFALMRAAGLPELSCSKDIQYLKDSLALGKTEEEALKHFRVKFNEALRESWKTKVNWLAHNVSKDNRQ
T1 sequence (P42338 with tags, fused parts or gaps limits assumed): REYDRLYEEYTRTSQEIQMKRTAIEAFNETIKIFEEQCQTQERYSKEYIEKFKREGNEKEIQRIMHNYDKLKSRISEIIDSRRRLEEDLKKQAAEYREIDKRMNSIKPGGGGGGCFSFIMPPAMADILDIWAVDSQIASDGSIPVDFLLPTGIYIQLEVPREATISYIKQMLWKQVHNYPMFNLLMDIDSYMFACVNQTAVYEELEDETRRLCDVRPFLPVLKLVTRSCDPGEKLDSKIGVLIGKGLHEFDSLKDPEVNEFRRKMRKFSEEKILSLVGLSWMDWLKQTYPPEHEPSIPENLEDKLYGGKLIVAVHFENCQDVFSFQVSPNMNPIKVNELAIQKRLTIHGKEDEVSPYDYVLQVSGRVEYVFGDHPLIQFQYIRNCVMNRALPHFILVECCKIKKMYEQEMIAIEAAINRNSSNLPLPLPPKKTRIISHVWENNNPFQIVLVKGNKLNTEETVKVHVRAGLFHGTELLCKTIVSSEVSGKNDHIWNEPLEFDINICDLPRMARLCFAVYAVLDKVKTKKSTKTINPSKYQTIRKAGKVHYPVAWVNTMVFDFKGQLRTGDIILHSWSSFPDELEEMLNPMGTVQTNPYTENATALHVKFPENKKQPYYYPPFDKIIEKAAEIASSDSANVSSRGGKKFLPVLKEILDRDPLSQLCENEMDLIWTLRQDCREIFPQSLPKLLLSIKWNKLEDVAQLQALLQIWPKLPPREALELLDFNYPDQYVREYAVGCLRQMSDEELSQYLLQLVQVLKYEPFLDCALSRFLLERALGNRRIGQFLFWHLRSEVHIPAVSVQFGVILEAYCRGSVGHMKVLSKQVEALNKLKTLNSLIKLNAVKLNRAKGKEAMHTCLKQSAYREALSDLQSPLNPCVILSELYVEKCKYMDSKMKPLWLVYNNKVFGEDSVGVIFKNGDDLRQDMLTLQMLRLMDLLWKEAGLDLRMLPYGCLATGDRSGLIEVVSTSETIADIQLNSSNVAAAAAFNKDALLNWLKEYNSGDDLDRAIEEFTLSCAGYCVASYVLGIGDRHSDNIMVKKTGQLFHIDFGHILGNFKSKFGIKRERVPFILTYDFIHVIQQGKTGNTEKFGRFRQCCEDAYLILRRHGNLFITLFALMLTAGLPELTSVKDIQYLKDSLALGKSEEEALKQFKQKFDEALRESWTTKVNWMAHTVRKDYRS

For the compound `CCOCc1cc(-c2ccc3ncc4c(c3c2)n(-c2c(C)nn(C)c2C)c(=O)n4C)cnc1N` [Example 166.5, 8-(6-Amino-5-ethoxymethyl-pyridin-3-yl)-3-methyl-1-(1,3,5-trimethyl-1H-pyrazol-4-yl)-1,3-dihydro-imidazo[4,5-c]quinolin-2-one], the IC50 at PI3K beta came to 222 nM; at PI3K delta, 33 nM; in [1], 91.7 nM; at PI3K alpha it was 28 nM; in data set [2], 301 nM; in [3], 833 nM.

Turning to `CCNc1cc(-c2ccc3ncc4c(c3c2)n(-c2cn(C)nc2C)c(=O)n4C)cnc1Cl` [Example 153.2, 8-(6-Chloro-5-ethylamino-pyridin-3-yl)-1-(1,3-dimethyl-1H-pyrazol-4-yl)-3-methyl-1,3-dihydro-imidazo[4,5-c]quinolin-2-one], the IC50 was 9 nM on PI3K beta; 3 nM at PI3K delta; 15 nM on PI3K alpha; below 3 nM on mTOR; below 5 nM in [2]; below 5 nM in data set [4]. The IC50 in [3] stood at 5 nM.

As for `CCNc1cc(-c2ccc3ncc4c(c3c2)n(-c2c(C)noc2C)c(=O)n4C)cnc1F` [Example 154.2, 1-(3,5-Dimethyl-isoxazol-4-yl)-8-(5-ethylamino-6-fluoro-pyridin-3-yl)-3-methyl-1,3-dihydro-imidazo[4,5-c]quinolin-2-one], the IC50 at PI3K beta stood at 76 nM; at PI3K delta, 80 nM; in data set [1], 39 nM; at PI3K alpha, 173 nM; in data set [2], 253 nM; in data set [4], 245 nM. Also, the half-maximal inhibitory concentration (IC50) in [3] came to 458 nM.

Turning to `CNc1ncc(-c2ccc3ncc4c(c3c2)n(-c2cn(C)nc2C)c(=O)n4C)cc1COC` [Example 248.3, 1-(1,3-Dimethyl-1H-pyrazol-4-yl)-8-(5-methoxymethyl-6-methylamino-pyridin-3-yl)-3-methyl-1,3-dihydro-imidazo[4,5-c]quinolin-2-one], the half-inhibitory concentration (IC50) is 23 nM on PI3K beta; below 3 nM on PI3K delta; 10 nM on PI3K alpha; 15 nM at mTOR; 9 nM in data set [2]; 25 nM in data set [4]. Besides, the half-inhibitory concentration (IC50) in [3] came to 25 nM.

For the compound `Cc1nn(C(C)C)cc1-n1c(=O)n(C)c2cnc3ccc(-c4ccccn4)cc3c21` [Example 113, 1-(1-Isopropyl-3-methyl-1H-pyrazol-4-yl)-3-methyl-8-pyridin-2-yl-1,3-dihydro-imidazo[4,5-c]quinolin-2-one], in the data set “Solubility at pH 6.8”, the solubility was determined as 30 µg/mL (≈ 75.3 µM). In data set [2], the IC50 worked out at 818 nM.

As to `Cc1nn(C)cc1-n1c(=O)n(C)c2cnc3ccc(-c4cncc(C(C)(C)CO)c4)cc3c21` [Example 229, 1-(1,3-Dimethyl-1H-pyrazol-4-yl)-8-[5-(2-hydroxy-1,1-dimethyl-ethyl)-pyridin-3-yl]-3-methyl-1,3-dihydro-imidazo[4,5-c]quinolin-2-one], the IC50 amounted to 8 nM at PI3K beta; 5 nM at PI3K delta; 11 nM in data set [1]; 8 nM on PI3K alpha; 279 nM in data set [2]; 275 nM in data set [4]. The half-inhibitory concentration (IC50) in [3] is 235 nM.

Regarding `CNc1ncc(-c2ccc3ncc4c(c3c2)n(-c2cn(C(C)C)nc2C)c(=O)n4C)cc1COC` [Example 248.1, 1-(1-Isopropyl-3-methyl-1H-pyrazol-4-yl)-8-(5-methoxymethyl-6-methylamino-pyridin-3-yl)-3-methyl-1,3-dihydro-imidazo[4,5-c]quinolin-2-one], the half-inhibitory concentration (IC50) at PI3K beta is 71 nM; on PI3K delta it was 4 nM; at PI3K alpha, 20 nM; at mTOR, 113 nM; in [2], below 5 nM; in [4], 81 nM. For the same compound, the IC50 in data set [3] was found to be 73 nM.

Take `CNc1ncc(-c2ccc3ncc4c(c3c2)n(-c2cn(C)nc2Cl)c(=O)n4C)cc1COC` [Example 248.4, 1-(3-Chloro-1-methyl-1H-pyrazol-4-yl)-8-(5-methoxymethyl-6-methylaminopyridin-3-yl)-3-methyl-1,3-dihydro-imidazo[4,5-c]quinolin-2-one]: the IC50 on PI3K beta was 8 nM; on PI3K delta, below 3 nM; at PI3K alpha, 7 nM; on mTOR it was 6 nM; in data set [2], below 5 nM; in data set [4], 8 nM. For the same compound, the IC50 in data set [3] stood at 8 nM.

Regarding `COc1ccc(-c2ccc3ncc4[nH]c(=O)n(-c5cn(C)nc5C)c4c3c2)cc1OC` [Example 111, 8-(3,4-Dimethoxy-phenyl)-1-(1,3-dimethyl-1H-pyrazol-4-yl)-1,3-dihydro-imidazo[4,5-c]quinolin-2-one], the IC50 is 41 nM on PI3K beta; 50 nM on PI3K delta; 3 nM in data set [1]; 27 nM on PI3K alpha; 10 nM in data set [2]; 13 nM in [4]. Moreover, the IC50 in data set [3] stood at 18 nM.
